Data set [1] deals with T1, recombinant human HDAC1 enzyme (Homo sapiens, UniProt Q13547).
T1 construct: made in house; host or cells: mammalian cells
The data set is described as follows: HDAC1 assay (Fluor-de-Lys fluorescence). It counts as biochemical. The note with it: HDAC Class I; read-out: IC50 Inhibition, HDAC1. The procedure:
(§1) The final concentration in the assay is 20 μM.
The HDAC1 enzyme is diluted in assay buffer prior to each use from a fresh aliquot of enzyme.
(§2) The final concentration in the assay is 1-2 nM.

Another data set addresses T2, human HDAC8 enzyme (Homo sapiens, UniProt Q9BY41).
T2 construct: full length (starting from amino acid 1 to 377+ linker IEGRGS+6 His); made in house; host or cells: E. coli BL21 codon plus
T2 sequence (Q9BY41 1-377): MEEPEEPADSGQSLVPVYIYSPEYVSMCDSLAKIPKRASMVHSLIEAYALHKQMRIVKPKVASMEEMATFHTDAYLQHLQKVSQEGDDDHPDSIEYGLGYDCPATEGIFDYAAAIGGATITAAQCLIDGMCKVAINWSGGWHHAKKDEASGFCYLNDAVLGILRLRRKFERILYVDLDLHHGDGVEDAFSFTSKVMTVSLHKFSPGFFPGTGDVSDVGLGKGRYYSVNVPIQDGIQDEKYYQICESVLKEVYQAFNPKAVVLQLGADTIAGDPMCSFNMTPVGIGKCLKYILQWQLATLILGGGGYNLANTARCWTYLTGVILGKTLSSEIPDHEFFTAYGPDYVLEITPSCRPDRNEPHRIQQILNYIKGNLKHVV
Description: HDAC8 assay (Fluor-de-Lys-HDAC8 fluorescence). It counts as biochemical.

For the next data set, the target named is T3, HDAC6 (Homo sapiens, UniProt Q9UBN7).
T3 sequence (Q9UBN7 1-1215): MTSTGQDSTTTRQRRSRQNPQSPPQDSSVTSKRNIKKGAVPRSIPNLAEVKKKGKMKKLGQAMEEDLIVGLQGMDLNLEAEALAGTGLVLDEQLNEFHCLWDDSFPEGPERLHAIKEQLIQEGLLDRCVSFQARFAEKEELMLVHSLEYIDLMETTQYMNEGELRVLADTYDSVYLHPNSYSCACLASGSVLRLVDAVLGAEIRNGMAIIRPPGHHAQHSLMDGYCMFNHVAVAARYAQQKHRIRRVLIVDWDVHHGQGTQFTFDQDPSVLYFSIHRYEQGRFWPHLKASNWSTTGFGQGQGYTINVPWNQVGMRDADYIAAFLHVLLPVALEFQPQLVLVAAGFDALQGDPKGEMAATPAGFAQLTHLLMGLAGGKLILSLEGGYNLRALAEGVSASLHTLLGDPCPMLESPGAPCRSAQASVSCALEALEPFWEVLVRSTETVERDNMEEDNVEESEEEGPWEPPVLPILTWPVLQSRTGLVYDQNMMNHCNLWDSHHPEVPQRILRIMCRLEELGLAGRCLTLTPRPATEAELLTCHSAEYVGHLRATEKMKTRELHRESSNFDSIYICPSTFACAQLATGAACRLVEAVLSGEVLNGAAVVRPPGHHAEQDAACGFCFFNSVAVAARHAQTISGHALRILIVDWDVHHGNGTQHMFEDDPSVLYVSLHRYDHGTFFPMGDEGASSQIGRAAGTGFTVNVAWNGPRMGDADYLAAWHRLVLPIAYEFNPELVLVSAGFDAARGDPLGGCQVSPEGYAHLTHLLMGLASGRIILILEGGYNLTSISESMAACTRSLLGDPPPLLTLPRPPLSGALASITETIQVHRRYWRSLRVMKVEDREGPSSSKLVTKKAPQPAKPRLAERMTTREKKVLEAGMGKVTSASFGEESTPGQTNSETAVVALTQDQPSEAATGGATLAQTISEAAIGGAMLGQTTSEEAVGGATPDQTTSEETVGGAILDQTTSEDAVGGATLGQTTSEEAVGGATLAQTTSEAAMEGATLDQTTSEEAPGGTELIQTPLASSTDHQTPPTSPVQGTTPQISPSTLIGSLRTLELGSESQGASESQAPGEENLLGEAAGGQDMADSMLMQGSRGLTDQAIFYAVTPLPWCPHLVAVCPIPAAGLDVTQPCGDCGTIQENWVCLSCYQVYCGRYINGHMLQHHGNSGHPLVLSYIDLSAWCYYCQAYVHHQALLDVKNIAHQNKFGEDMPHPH
Description: cell-free, isoform selective HDAC enzyme assay, HDAC6. It counts as biochemical.

A further data set concerns the target HDAC4 (Homo sapiens, UniProt P56524). The data set is described as follows: cell-free, isoform selective HDAC enzyme assay, HDAC4. It counts as biochemical. The note with it: HDAC Class IIa; read-out: IC50 Inhibition, HDAC4.
The target in data set [2] is T4, recombinant human HDAC3 enzyme (HDAC3(DAD) enzyme complex) (Homo sapiens, UniProt O15379).
T4 construct: made in house; host or cells: mammalian cells
T4 sequence (O15379 whole entry): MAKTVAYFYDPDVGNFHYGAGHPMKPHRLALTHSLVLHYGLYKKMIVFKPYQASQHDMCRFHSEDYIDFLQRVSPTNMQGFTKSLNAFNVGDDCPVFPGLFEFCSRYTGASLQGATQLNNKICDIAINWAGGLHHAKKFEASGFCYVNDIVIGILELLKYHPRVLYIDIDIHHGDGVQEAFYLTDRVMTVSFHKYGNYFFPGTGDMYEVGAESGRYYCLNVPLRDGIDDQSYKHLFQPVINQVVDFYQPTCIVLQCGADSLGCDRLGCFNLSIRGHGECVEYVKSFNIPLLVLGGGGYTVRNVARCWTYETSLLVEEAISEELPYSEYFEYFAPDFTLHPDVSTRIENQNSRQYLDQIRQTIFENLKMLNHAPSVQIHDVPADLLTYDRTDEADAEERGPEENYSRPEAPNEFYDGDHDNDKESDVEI
T4 sequence (Q9Y618 389-480 partner limits assumed): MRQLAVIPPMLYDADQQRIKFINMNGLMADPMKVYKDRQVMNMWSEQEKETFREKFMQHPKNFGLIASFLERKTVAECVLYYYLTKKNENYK
Description: HDAC3 assay (Fluor-de-Lys fluorescence). In kind it is biochemical. The note with it: HDAC Class I; read-out: IC50 Inhibition, HDAC3. The procedure: as §1, §2

Another data set addresses T5, SIRT1 (Homo sapiens, UniProt Q96EB6).
T5 sequence (Q96EB6 1-747): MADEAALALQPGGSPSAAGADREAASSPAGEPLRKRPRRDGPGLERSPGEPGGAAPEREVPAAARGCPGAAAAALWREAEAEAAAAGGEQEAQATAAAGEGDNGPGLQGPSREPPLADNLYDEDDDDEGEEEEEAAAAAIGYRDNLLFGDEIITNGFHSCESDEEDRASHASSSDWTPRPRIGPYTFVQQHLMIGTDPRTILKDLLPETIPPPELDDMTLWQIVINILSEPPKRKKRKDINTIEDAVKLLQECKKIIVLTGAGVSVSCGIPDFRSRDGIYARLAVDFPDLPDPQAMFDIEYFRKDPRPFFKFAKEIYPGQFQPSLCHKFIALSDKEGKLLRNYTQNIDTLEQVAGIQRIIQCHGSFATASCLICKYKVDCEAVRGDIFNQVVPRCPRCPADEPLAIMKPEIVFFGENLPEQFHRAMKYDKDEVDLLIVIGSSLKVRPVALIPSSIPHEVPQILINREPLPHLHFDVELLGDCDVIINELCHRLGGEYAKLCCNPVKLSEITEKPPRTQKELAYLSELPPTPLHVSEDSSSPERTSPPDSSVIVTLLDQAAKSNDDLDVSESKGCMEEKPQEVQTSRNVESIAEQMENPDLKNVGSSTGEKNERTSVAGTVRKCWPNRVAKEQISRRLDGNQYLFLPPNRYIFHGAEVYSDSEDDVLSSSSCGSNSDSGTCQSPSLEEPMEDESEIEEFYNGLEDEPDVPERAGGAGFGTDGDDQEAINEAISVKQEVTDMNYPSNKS
Description: cell-free, isoform selective HDAC enzyme assay, SIRT1. It counts as biochemical. The note with it: HDAC Class III; read-out: IC50 Inhibition, SIRT1. The procedure: The following pharmaceutically active compounds, all of which are taught in the prior art, were assessed for the inhibition of various HDAC subtypes the preceding cell-free, isoform selective HDAC enzyme assays: […]

In data set [3] the test system is acetylated histones in the brain. The note with it: see WO2003083067; cited from earlier work.

Where two headings read alike, the source gives them in different places.

For orientation: IC50 means the concentration that gives 50% inhibition.

Sequence of HDAC4 (P56524 whole entry, species assumed, canonical isoform): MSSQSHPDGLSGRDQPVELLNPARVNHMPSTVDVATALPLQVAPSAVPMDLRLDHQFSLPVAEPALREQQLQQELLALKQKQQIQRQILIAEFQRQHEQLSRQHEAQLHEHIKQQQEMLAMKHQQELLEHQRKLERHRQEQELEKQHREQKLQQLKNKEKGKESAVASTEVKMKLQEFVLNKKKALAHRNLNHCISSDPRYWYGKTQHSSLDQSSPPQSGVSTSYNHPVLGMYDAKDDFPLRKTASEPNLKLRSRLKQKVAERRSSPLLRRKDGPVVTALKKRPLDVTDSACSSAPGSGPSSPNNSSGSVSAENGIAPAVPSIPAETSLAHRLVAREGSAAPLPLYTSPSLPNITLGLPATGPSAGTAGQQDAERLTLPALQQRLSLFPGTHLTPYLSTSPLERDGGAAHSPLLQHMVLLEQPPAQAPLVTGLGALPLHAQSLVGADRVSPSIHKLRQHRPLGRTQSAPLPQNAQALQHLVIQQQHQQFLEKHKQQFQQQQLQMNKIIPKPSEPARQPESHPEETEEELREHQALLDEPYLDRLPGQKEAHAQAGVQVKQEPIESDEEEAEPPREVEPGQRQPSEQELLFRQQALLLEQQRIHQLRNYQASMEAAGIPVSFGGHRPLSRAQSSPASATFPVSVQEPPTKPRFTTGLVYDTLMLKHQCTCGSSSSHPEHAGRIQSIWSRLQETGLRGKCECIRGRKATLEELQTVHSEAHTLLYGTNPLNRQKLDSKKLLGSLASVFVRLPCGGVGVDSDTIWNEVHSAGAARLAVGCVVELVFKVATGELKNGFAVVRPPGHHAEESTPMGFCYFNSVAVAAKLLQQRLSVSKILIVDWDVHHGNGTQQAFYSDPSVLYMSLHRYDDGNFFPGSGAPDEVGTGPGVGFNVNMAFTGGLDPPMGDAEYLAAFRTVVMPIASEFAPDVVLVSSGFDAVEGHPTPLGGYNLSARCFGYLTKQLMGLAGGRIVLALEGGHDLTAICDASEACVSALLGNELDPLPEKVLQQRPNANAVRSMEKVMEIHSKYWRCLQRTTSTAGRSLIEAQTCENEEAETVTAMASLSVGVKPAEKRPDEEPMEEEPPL
T1 sequence (Q13547 whole entry): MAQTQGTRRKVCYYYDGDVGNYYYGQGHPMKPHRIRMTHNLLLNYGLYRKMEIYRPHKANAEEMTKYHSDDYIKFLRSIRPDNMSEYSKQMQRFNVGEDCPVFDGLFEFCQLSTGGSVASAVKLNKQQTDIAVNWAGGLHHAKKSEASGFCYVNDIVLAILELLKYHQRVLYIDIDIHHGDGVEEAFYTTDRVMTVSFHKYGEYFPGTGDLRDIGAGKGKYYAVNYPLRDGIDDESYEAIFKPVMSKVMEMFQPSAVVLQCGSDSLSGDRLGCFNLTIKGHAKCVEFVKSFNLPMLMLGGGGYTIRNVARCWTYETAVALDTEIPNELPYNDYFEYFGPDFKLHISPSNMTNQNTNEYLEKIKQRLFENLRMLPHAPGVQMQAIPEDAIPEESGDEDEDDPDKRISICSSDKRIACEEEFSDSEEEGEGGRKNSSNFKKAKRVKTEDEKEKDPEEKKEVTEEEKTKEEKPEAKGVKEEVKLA
Description for human HDAC8 enzyme: The HDAC8 assay is used to measure inhibitory activity of compounds against the human HDAC8 enzyme. The assay may be performed in 96 well or 384 well microtiter plates by pre-incubating serial dilutions of compounds with a fixed concentration of HDAC8 enzyme and then adding a diacetylated peptide-containing substrate/developer that fluoresces upon deacetylation. The deacetylase reaction is performed at 37° C. for 60 min and stopped by addition of the developer solution.
Reagents of the HDAC Fluorescent Activity Assay are purchased from BioMol Research Laboratories (Plymouth Meeting, Pa.), and include the Fluor-de-Lys™-HDAC8 Substrate/DeveloperII System. The reagents include the fluorescent substrate as a 5 mM stock solution, the and the DeveloperII Concentrate.
TSA is provided as a 10 mM stock solution in 100% DMSO.
The final concentration in the assay is 70 μM.
Test compounds are prepared as a 10×5% DMSO solution in distilled water. The final DMSO concentration in the reaction is 0.5%.
The experiment is performed in a 96-well microplate (Matrix Screenmates white), 50 ul volume, according to the following steps:
1) Add 5 ul of DMSO/compound solution
2) Add 40 ul of HDAC8 enzyme in assay buffer
4) Start the reaction by adding 5 ul of the 1 mM Substrate Solution
5) Incubate 1 h at 37° C. […]
8) Measure the fluorescence at Ex.360 nM and Em.460 nM […]

As for `CCCCCC[C@@H](CCC)C(=O)O` [Arundic acid, (2R)-2-propyloctanoic acid], the IC50 was 10 µM in data set [1]; 31 µM on human HDAC8 enzyme (HDAC Class I, read-out: IC50 Inhibition, HDAC8); above 50 µM on HDAC6 (HDAC Class IIb, read-out: IC50 Inhibition, HDAC6); above 50 µM at HDAC4; 36 µM in data set [2]; above 50 µM at SIRT1. In addition, the “potency at HDAC 8 relative to HDAC1 and HDAC3” value at human HDAC8 enzyme (HDAC 8 potency similar to HDAC1 and HDAC3) is on record as at most 5 fold.

`O=C(CCCCCCC(=O)Nc1ccccc1)NO` [SAHA, suberoylanilide hydroxamic acid]: in data set [3], the “accumulation of acetylated histones in the brain” value is listed as “cause accumulation of acetylated histones in the brain” and the “crossing of the blood-brain barrier” value is “cross the blood-brain barrier”.

As to `CCCC(CCC)C(=O)O` [Valproic acid, 2-propylpentanoic acid], the IC50 on HDAC6 was above 5000 µM; on HDAC4, above 25 µM.

Source of the values: US20090325862A1, “Histone Deacetylase Inhibitors for the Treatment of Neurodegeneration” (priority 2006, published 2009).
